Measured values from patent US8993637B2 (priority 2013, dated 2015).

Tests used:
[1] = system: mouse FSGS model (adriamycin-induced, BALB/c mice); assay: Mouse FSGS model: renal histopathology (H&E) and Col-IV immunohistochemistry; assay type: in vivo; settings: days 14 and 28, Citral 200 mg/kg daily by gavage, p<0.01
Description: (§1) A progressive type of mouse FSGS model was used, particularly characterized by EPHLs, a key histopathology index of progression of FSGS, peri-glomerular inflammation, and progressive glomerular hyalinosis/sclerosis. The FSGS model was induced in 8-week-old male BALB/c mice (National Laboratory Animal Center, Taipei, Taiwan) by intravenous injection of a single dose of adriamycin (0.10 mg/10 g body weight) (Pfizer, New York, N.Y.) as described previously. […] Age- and sex-matched BALB/c mice were used as normal controls. Urine samples were collected in metabolic cages on days 3, 7, 14, 21, and 28. Renal cortical tissues and blood samples were collected when the mice were sacrificed and stored appropriately for further analysis. The concentration of urine protein was determined using BCA kits (Pierce, Rockford, Ill.) as described previously and normalized to urine creatinine (Cr) levels measured using kits (Wako Pure Chemical Industries, Osaka, Japan), as described previously. Serum levels of blood urea nitrogen (BUN) and Cr were determined using BUN kits and Cr kits (both from Fuji Dry-Chem Slide, Fuji Film Medical, Tokyo, Japan), as described previously.
Renal tissues were formalin-fixed, embedded in paraffin, and sections (4 μm) prepared and stained with hematoxylin and eosin (H&E) for renal histopathology as described previously or TUNEL stained for apoptosis as described previously. Renal pathology was examined and renal lesions scored as described previously. For EPHLs and sclerosis, at least 50 glomeruli in sections were examined for each mouse. To detect apoptosis in renal tissues, TUNEL staining was performed using an in situ apoptosis detection kit (Chemicon, Temecula, Calif.) according to the manufacturer's instructions. For immunohistochemistry, methyl Carnoy solution-fixed and paraffin-embedded renal sections were prepared and incubated with goat antibodies against mouse collagen IV (Col-IV) (Southern Biotech, AL) or rabbit antibodies against phosphorylated mouse NF-κB p65 (Cell Signaling Technology, MA), F4/80 (Serotec, Raleigh, N.C.), or CD3 (Serotec), then with horseradish-conjugated rabbit anti-goat IgG antibodies or swine anti-rabbit IgG antibodies (both from Dako, Carpinteria, Calif.). Quantitative image analysis software (Pax-it; Paxcam, VIIIa Park, Ill.) was used to score Col-IV staining and the number of phosphorylated NF-κB p65-, CD3-, F4/80-, or TUNEL-positive cells as described previously.

NF-κB in RAW-Blue cells = assay: NF-κB reporter assay (secreted embryonic alkaline phosphatase, QUANTI-Blue); assay type: cell-based, murine; settings: 30 min preincubation, then 24 h LPS 1 μg/ml
Description: (§2) ROS production was measured as the relative fluorescence intensity. […] The data are expressed as the mean±SD for three separate experiments. *p<0.05, **p<0.01 compared to the LPS-treated group. RAW-Blue™ cells (Murine macrophages RAW264.7 stably transfected with the NF-κB reporter gene) purchased from InvivoGen (San Diego, Calif.). LPS (from Escherichia coli 0111:B4) and mouse antibodies against phospho-ERK1/2, phospho-JNK1/2, and phospho-p38 (all from Sigma, St. Louis, Mo.). Rabbit antibodies against mouse ERK1, JNK1, and p38, and HRP-labeled second antibodies were purchased from Santa Cruz Biotechnology, and IL-1β, IL-6, and TNF-α ELISA kits from R&D Systems. ROS production assay, NO production assay, NF-κB reporter assay, ELISA, and Western blotting were performed as described previously.

RAW 264.7 macrophages [2] = assay: NO production assay (Griess reaction) in LPS-activated macrophages; assay type: cell-based, murine; settings: 30 min preincubation, then 24 h LPS 1 μg/ml; p<0.05
Description: as §2

RAW 264.7 macrophages [3] = assay: ROS production assay in LPS-activated macrophages; assay type: cell-based, murine; settings: Citral 10 μg/ml; 30 min before and during LPS (1 μg/ml) stimulation, 0-4 h
Description: as §2

[4] = system: CD3+ T cells, F4/80+ macrophages; assay: Mouse FSGS model: renal infiltration of T cells and macrophages (immunohistochemistry); assay type: in vivo; settings: days 14 and 28
Description: as §1, with “Renal cortical tissues and blood samples were collected when the mice were sacrificed and stored appropriately for further analysis.” left out
Renal tissues were formalin-fixed, embedded in paraffin, and sections (4 μm) prepared and stained with hematoxylin and eosin (H&E) for renal histopathology as described previously or TUNEL stained for apoptosis as described previously. Renal pathology was examined and renal lesions scored as described previously. […]

## CC(C)=CCCC(C)=CC=O (racemic) [Citral, 3,7-dimethyl-2,6-octadienal]
[1]; H&E
  glomerular EPHLs: greatly decreased
  glomerular hyalinosis/sclerosis: greatly decreased
  peri-glomerular inflammation: greatly decreased
[1]; immunohistochemistry
  renal Col-IV expression: markedly inhibited
NF-κB in RAW-Blue cells
  NF-κB transcriptional activity in LPS-stimulated macrophages: reduced
RAW 264.7 macrophages [2]
  LPS-induced increase in NO generation: inhibited
RAW 264.7 macrophages [3]
  LPS-induced increase in ROS production: reduced
[4]; p<0.005
  peri-glomerular infiltration of macrophages (F4/80+): significantly decreased
[4]; p<0.05
  renal peri-glomerular infiltration of T cells (CD3+): markedly inhibited
